Results as given in publication PMC7775851 (Journal of Pharmaceutical Analysis, 2019).

Columns and labels:
[1] = Stability of ilaprazole racemate stock solution; assay type: physicochemical; settings: stock solution in acetonitrile, −80 °C for 15 days
CYP3A = settings: cited from earlier work

COc1ccnc(C[S+]([O-])c2nc3cc(-n4cccc4)ccc3[nH]2)c1C (racemic) [ilaprazole racemate, ilaprazole]
Stability of stock solution (in words) [1]: stable | Metabolizing enzyme (CYP3A): mainly metabolized by CYP3A
